Source: PubChem BioAssay (NCI)
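Where inhibition never reached the appropriate level, the endpoint shown equals the highest concentration tested. Otherwise, values were interpolated linearly from a five-concentration, 48-hour dose response in 96-well plates. GI50 is the concentration that inhibits growth by half. TGI: total growth inhibition.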

Tests used:
Test in all cases: NCI tumour cell line growth inhibition, 48 h
NCI/ADR-RES ovarian = test system: NCI/ADR-RES ovarian
U251 CNS = test system: U251 CNS
NCI-H460 lung = test system: NCI-H460 lung
MOLT-4 leukemia = test system: MOLT-4 leukemia
MCF7 breast = test system: MCF7 breast
BT-549 breast = test system: BT-549 breast
OVCAR-3 ovarian = test system: OVCAR-3 ovarian
KM12 colon = test system: KM12 colon
786-0 renal = test system: 786-0 renal
OVCAR-4 ovarian = test system: OVCAR-4 ovarian
OVCAR-5 ovarian = test system: OVCAR-5 ovarian
MALME-3M melanoma = test system: MALME-3M melanoma
A498 renal = test system: A498 renal
IGROV1 ovarian = test system: IGROV1 ovarian
SK-MEL-28 melanoma = test system: SK-MEL-28 melanoma
UACC-62 melanoma = test system: UACC-62 melanoma
HCT-15 colon = test system: HCT-15 colon
SF-268 CNS = test system: SF-268 CNS
PC-3 prostate = test system: PC-3 prostate
SK-MEL-5 melanoma = test system: SK-MEL-5 melanoma
RXF 393 renal = test system: RXF 393 renal
COLO 205 colon = test system: COLO 205 colon
HCT-116 colon = test system: HCT-116 colon
SNB-19 CNS = test system: SNB-19 CNS
HCC-2998 colon = test system: HCC-2998 colon
SK-OV-3 ovarian = test system: SK-OV-3 ovarian
HT29 colon = test system: HT29 colon
SN12C renal = test system: SN12C renal
HOP-92 NSCLC = test system: HOP-92 NSCLC
SF-295 CNS = test system: SF-295 CNS
LOX IMVI melanoma = test system: LOX IMVI melanoma
TK-10 renal = test system: TK-10 renal
UO-31 renal = test system: UO-31 renal
NCI-H226 lung = test system: NCI-H226 lung
ACHN renal = test system: ACHN renal
NCI-H23 lung = test system: NCI-H23 lung
RPMI-8226 leukemia = test system: RPMI-8226 leukemia
SR leukemia = test system: SR leukemia
NCI-H522 lung = test system: NCI-H522 lung
MDA-MB-231 breast = test system: MDA-MB-231 breast
EKVX NSCLC = test system: EKVX NSCLC
SK-MEL-2 melanoma = test system: SK-MEL-2 melanoma
CAKI-1 renal = test system: CAKI-1 renal
OVCAR-8 ovarian = test system: OVCAR-8 ovarian
SF-539 CNS = test system: SF-539 CNS
DU-145 prostate = test system: DU-145 prostate
MDA-MB-435 = test system: MDA-MB-435
SW-620 colon = test system: SW-620 colon
HS 578T breast = test system: HS 578T breast
A549 NSCLC = test system: A549 NSCLC
M14 melanoma = test system: M14 melanoma
UACC-257 melanoma = test system: UACC-257 melanoma
SNB-75 CNS = test system: SNB-75 CNS
K-562 leukemia = test system: K-562 leukemia
HOP-62 NSCLC = test system: HOP-62 NSCLC
T-47D breast = test system: T-47D breast
MDA-N = test system: MDA-N
CCRF-CEM leukemia = test system: CCRF-CEM leukemia
HL-60(TB) leukemia = test system: HL-60(TB) leukemia

`CN(C)c1ccc(C(=C2C=CC(=[N+](C)C)C=C2)c2c(O)c(S(=O)(=O)[O-])cc3cc(S(=O)(=O)O)ccc23)cc1` showed a TGI (NCI/ADR-RES ovarian) greater than 100 µM, a TGI (U251 CNS) greater than 100 µM and a TGI (NCI-H460 lung) greater than 100 µM. The TGI (MOLT-4 leukemia) was greater than 100 µM, the TGI (MCF7 breast) was greater than 100 µM and the TGI (BT-549 breast) was greater than 100 µM. It also gave a TGI (OVCAR-3 ovarian) greater than 100 µM, a TGI (KM12 colon) greater than 100 µM and a TGI (786-0 renal) greater than 100 µM. The TGI (OVCAR-4 ovarian) was greater than 100 µM, the TGI (OVCAR-5 ovarian) was greater than 100 µM and the TGI (MALME-3M melanoma) was greater than 100 µM. It also gave a TGI (A498 renal) greater than 100 µM, a TGI (IGROV1 ovarian) greater than 100 µM and a TGI (SK-MEL-28 melanoma) greater than 100 µM. For the same molecule, the TGI (UACC-62 melanoma) was greater than 100 µM, the TGI (HCT-15 colon) was greater than 100 µM and the TGI (SF-268 CNS) was greater than 100 µM. For the same molecule, the TGI (PC-3 prostate) was greater than 100 µM, the TGI (SK-MEL-5 melanoma) was greater than 100 µM and the TGI (RXF 393 renal) was greater than 100 µM. The TGI (COLO 205 colon) was greater than 100 µM, the TGI (HCT-116 colon) was greater than 100 µM and the TGI (SNB-19 CNS) was greater than 100 µM. The TGI (HCC-2998 colon) was greater than 100 µM, the TGI (SK-OV-3 ovarian) was greater than 100 µM and the TGI (HT29 colon) was greater than 100 µM. The TGI (SN12C renal) was greater than 100 µM, the TGI (HOP-92 NSCLC) was greater than 100 µM and the TGI (SF-295 CNS) was greater than 100 µM. It also gave a TGI (LOX IMVI melanoma) greater than 100 µM, a TGI (TK-10 renal) greater than 100 µM and a TGI (UO-31 renal) greater than 100 µM. For the same molecule, the TGI (NCI-H226 lung) was greater than 100 µM, the TGI (ACHN renal) was greater than 100 µM and the TGI (NCI-H23 lung) was greater than 100 µM. For the same molecule, the TGI (RPMI-8226 leukemia) was greater than 100 µM, the TGI (SR leukemia) was greater than 100 µM and the TGI (NCI-H522 lung) was greater than 100 µM. The TGI (MDA-MB-231 breast) was greater than 100 µM, the TGI (EKVX NSCLC) was greater than 100 µM and the TGI (SK-MEL-2 melanoma) was greater than 100 µM. For the same molecule, the TGI (CAKI-1 renal) was greater than 100 µM, the TGI (OVCAR-8 ovarian) was greater than 100 µM and the TGI (SF-539 CNS) was greater than 100 µM. The TGI (DU-145 prostate) was greater than 100 µM, the TGI (MDA-MB-435) was greater than 100 µM and the TGI (SW-620 colon) was greater than 100 µM. It also gave a TGI (HS 578T breast) greater than 100 µM, a TGI (A549 NSCLC) greater than 100 µM and a TGI (M14 melanoma) greater than 100 µM. The TGI (UACC-257 melanoma) was greater than 100 µM, the TGI (SNB-75 CNS) was greater than 100 µM and the TGI (K-562 leukemia) was greater than 100 µM. The TGI (HOP-62 NSCLC) was greater than 100 µM, the TGI (T-47D breast) was greater than 100 µM and the TGI (MDA-N) was greater than 100 µM.
`CC(=N\O)/C(C)=N/O.CC(=N\O)/C(C)=N/O.[Pd]` gave a GI50 (NCI/ADR-RES ovarian) of 3.18 µM, a TGI (NCI/ADR-RES ovarian) of 7.72 µM and a GI50 (U251 CNS) of 5.12 µM. It also gave a TGI (U251 CNS) greater than 10 µM, a GI50 (NCI-H460 lung) of 9.28 µM and a TGI (NCI-H460 lung) greater than 10 µM. It also gave a GI50 (MOLT-4 leukemia) greater than 10 µM, a TGI (MOLT-4 leukemia) greater than 10 µM and a GI50 (MCF7 breast) of 4.98 µM. It also gave a TGI (MCF7 breast) greater than 10 µM, a GI50 (BT-549 breast) of 8.49 µM and a TGI (BT-549 breast) greater than 10 µM. For the same molecule, the GI50 (OVCAR-3 ovarian) was 3.83 µM, the TGI (OVCAR-3 ovarian) was greater than 10 µM and the GI50 (KM12 colon) was 2.79 µM. For the same molecule, the TGI (KM12 colon) was 8.01 µM, the GI50 (786-0 renal) was 3.31 µM and the TGI (786-0 renal) was 8.86 µM. The GI50 (OVCAR-4 ovarian) was 4.72 µM, the TGI (OVCAR-4 ovarian) was greater than 10 µM and the GI50 (OVCAR-5 ovarian) was 6.47 µM. It also gave a TGI (OVCAR-5 ovarian) greater than 10 µM, a GI50 (MALME-3M melanoma) of 1.9 µM and a TGI (MALME-3M melanoma) of 4.53 µM. For the same molecule, the GI50 (A498 renal) was 4.9 µM, the TGI (A498 renal) was greater than 10 µM and the GI50 (IGROV1 ovarian) was 3.09 µM. The TGI (IGROV1 ovarian) was 9.16 µM, the GI50 (SK-MEL-28 melanoma) was 3.87 µM and the TGI (SK-MEL-28 melanoma) was 9.48 µM. It also gave a GI50 (UACC-62 melanoma) of 2.11 µM, a TGI (UACC-62 melanoma) of 5.75 µM and a GI50 (HCT-15 colon) of 2.44 µM. The TGI (HCT-15 colon) was 7.08 µM, the GI50 (SF-268 CNS) was 6.95 µM and the TGI (SF-268 CNS) was greater than 10 µM. It also gave a GI50 (PC-3 prostate) of 4.73 µM, a TGI (PC-3 prostate) greater than 10 µM and a GI50 (SK-MEL-5 melanoma) of 1.81 µM. It also gave a TGI (SK-MEL-5 melanoma) of 4.04 µM, a GI50 (RXF 393 renal) of 3.42 µM and a TGI (RXF 393 renal) of 7.42 µM. The GI50 (COLO 205 colon) was 3.84 µM, the TGI (COLO 205 colon) was greater than 10 µM and the GI50 (HCT-116 colon) was 2.38 µM. The TGI (HCT-116 colon) was 4.79 µM, the GI50 (SNB-19 CNS) was greater than 10 µM and the TGI (SNB-19 CNS) was greater than 10 µM. It also gave a GI50 (HCC-2998 colon) greater than 10 µM, a TGI (HCC-2998 colon) greater than 10 µM and a GI50 (CCRF-CEM leukemia) of 2.04 µM. It also gave a TGI (CCRF-CEM leukemia) of 6.13 µM, a GI50 (SK-OV-3 ovarian) of 7.62 µM and a TGI (SK-OV-3 ovarian) greater than 10 µM. The GI50 (HT29 colon) was 2.77 µM, the TGI (HT29 colon) was 7.99 µM and the GI50 (SN12C renal) was 8.65 µM. It also gave a TGI (SN12C renal) greater than 10 µM, a GI50 (SF-295 CNS) greater than 10 µM and a TGI (SF-295 CNS) greater than 10 µM. For the same molecule, the GI50 (LOX IMVI melanoma) was 1.58 µM, the TGI (LOX IMVI melanoma) was 3.16 µM and the GI50 (TK-10 renal) was 4.57 µM. It also gave a TGI (TK-10 renal) greater than 10 µM, a GI50 (NCI-H226 lung) greater than 10 µM and a TGI (NCI-H226 lung) greater than 10 µM. The GI50 (ACHN renal) was greater than 10 µM, the TGI (ACHN renal) was greater than 10 µM and the GI50 (NCI-H23 lung) was 2.6 µM. For the same molecule, the TGI (NCI-H23 lung) was 6.38 µM, the GI50 (RPMI-8226 leukemia) was 7.39 µM and the TGI (RPMI-8226 leukemia) was greater than 10 µM. The GI50 (SR leukemia) was greater than 10 µM, the TGI (SR leukemia) was greater than 10 µM and the GI50 (NCI-H522 lung) was 2.08 µM. The TGI (NCI-H522 lung) was 5.03 µM, the GI50 (MDA-MB-231 breast) was 3.3 µM and the TGI (MDA-MB-231 breast) was 9.03 µM. It also gave a GI50 (EKVX NSCLC) of 6.71 µM, a TGI (EKVX NSCLC) greater than 10 µM and a GI50 (SK-MEL-2 melanoma) of 3.31 µM. For the same molecule, the TGI (SK-MEL-2 melanoma) was 8.67 µM, the GI50 (CAKI-1 renal) was greater than 10 µM and the TGI (CAKI-1 renal) was greater than 10 µM. It also gave a GI50 (OVCAR-8 ovarian) of 1.84 µM, a TGI (OVCAR-8 ovarian) of 3.62 µM and a GI50 (SF-539 CNS) of 2.77 µM. The TGI (SF-539 CNS) was 6.1 µM, the GI50 (DU-145 prostate) was 6.48 µM and the TGI (DU-145 prostate) was greater than 10 µM. The GI50 (MDA-MB-435) was 2.64 µM, the TGI (MDA-MB-435) was 5.43 µM and the GI50 (SW-620 colon) was 3.44 µM. The TGI (SW-620 colon) was greater than 10 µM, the GI50 (HS 578T breast) was 1.94 µM and the TGI (HS 578T breast) was greater than 10 µM. It also gave a GI50 (A549 NSCLC) of 7.03 µM, a TGI (A549 NSCLC) greater than 10 µM and a GI50 (M14 melanoma) of 3.04 µM. For the same molecule, the TGI (M14 melanoma) was 8.55 µM, the GI50 (UACC-257 melanoma) was 3.15 µM and the TGI (UACC-257 melanoma) was greater than 10 µM. It also gave a GI50 (K-562 leukemia) greater than 10 µM, a TGI (K-562 leukemia) greater than 10 µM and a GI50 (HL-60(TB) leukemia) of 4 µM. For the same molecule, the TGI (HL-60(TB) leukemia) was greater than 10 µM, the GI50 (HOP-62 NSCLC) was 5.62 µM and the TGI (HOP-62 NSCLC) was greater than 10 µM. The GI50 (T-47D breast) was 6.19 µM, the TGI (T-47D breast) was greater than 10 µM and the GI50 (MDA-N) was 2.15 µM. For the same molecule, the TGI (MDA-N) was 4.87 µM.
